Test results from patent publication US20230146455A1, “TREATMENT OF INFLAMMATORY DISEASES WITH PEPTIDES AND PHARMACEUTICAL COMPOSITIONS” (Yuyu Pharma, Inc., priority 2020, published 2023).
Where a SMILES comes first, the peptide text is derived from it. [ ]: non-standard residue; d: D form. Hyp = O=C(O)[C@@H]1C[C@@H](O)CN1

Assay: PBMC cell counts (total, live, viability; trypan blue, Countess) with and without LPS and test articles (Example 9)
Format: cell-based, human
Settings: human; for viability at 24 h, 0.001 µM: PBMC + LPS(5 ug/ml) + compound 0.001 uM
Description: Treatment Human PBMCs were pretreated with YY-101, YDE-011 and YDE-043 or reference compound; Xiidra® at various concentration (ranging from 1 nM to 100 uM) for 2 h before stimulation. An equal volume of 0.5% DMSO was used as a vehicle control. Then, the cells were treated with LPS at 5 ug/ml. The supernatants from treated cells were harvested at 24 h and placed in a 96 well for Luminex cytokine & chemokine profiling using a Luminex 200 multiplex assay (Luminex; R&D system, USA).
The main study arm with triplicate wells per group in a 24-well plate: • 1. Blank • 2. PBMC: 0.5% DMSO • 3. PBMC+LPS (5 ug/ml) • 4. PBMC+YY-101 100 uM • 5. PBMC+YY-101 10 uM • 6. PBMC+YY-101 1 uM • 7. PBMC+YY-101 0.1 uM • 8. PBMC+YY-101 0.01 uM • 9. PBMC+LPS (5 ug/ml)+Xiidra®100 uM • 10. PBMC+LPS (5 ug/ml)+Xiidra® 10 uM • 11. PBMC+LPS (5 ug/ml)+Xiidra® 1 uM • 12. PBMC+LPS (5 ug/ml)+Xiidra®0.1 uM • 13. PBMC+LPS (5 ug/ml)+Xiidra®0.01 uM • 14. PBMC+LPS (5 ug/ml)+Xiidra®0.001 uM • 15. PBMC+LPS (5 ug/ml)+YY-101 100 uM • 16. PBMC+LPS (5 ug/ml)+YY-101 10 uM • 17. PBMC+LPS (5 ug/ml)+YY-101 1 uM • 18. PBMC+LPS (5 ug/ml)+YY-101 0.1 uM • 19. PBMC+LPS (5 ug/ml)+YY-101 0.01 uM • 20. PBMC+LPS (5 ug/ml)+YY-101 0.001 uM • 21. PBMC+LPS (5 ug/ml)+YDE-011 100 uM • 22. PBMC+LPS (5 ug/ml)+YDE-011 10 uM • 23. PBMC+LPS (5 ug/ml)+YDE-011 1 uM • 24. PBMC+LPS (5 ug/ml)+YDE-011 0.1 uM • 25. PBMC+LPS (5 ug/ml)+YDE-011 0.01 uM • 26. PBMC+LPS (5 ug/ml)+YDE-011 0.001 uM • 27. PBMC+LPS (5 ug/ml)+YDE-043 100 uM • 28. PBMC+LPS (5 ug/ml)+YDE-043 10 uM • 29. PBMC+LPS (5 ug/ml)+YDE-043 1 uM • 30. PBMC+LPS (5 ug/ml)+YDE-043 0.1 uM • 31. PBMC+LPS (5 ug/ml)+YDE-043 0.01 uM • 32. PBMC+LPS (5 ug/ml)+YDE-043 0.001 uM
The number of PBMCs was measured after 24 hr of treatment. The culture both and trypan blue were diluted 1:1 and 10 ul was added to Countess cell counting chamber (Thermo fisher, USA). The number of PBMCs was measured using a Countess automated cell counter (Thermo fisher, USA).

[1] = PBMCs, PBMC + LPS(5 ug/ml) + compound 0.01 uM, 24 hr
[2] = PBMCs, PBMC + LPS(5 ug/ml) + compound 0.1 uM, 24 hr
[3] = PBMCs, PBMC + LPS(5 ug/ml) + compound 1 uM, 24 hr
[4] = PBMCs, PBMC + LPS(5 ug/ml) + compound 10 uM, 24 hr
[5] = PBMCs, PBMC + LPS(5 ug/ml) + compound 100 uM, 24 hr

SMILES: CC(C)C[C@H](NC(=O)CNC(=O)[C@H](CC(C)C)NC(=O)[C@H](CCC(N)=O)NC(=O)CNC(=O)[C@@H]1C[C@@H](O)CN1)C(=O)N[C@@H](C)C(=O)NCC(=O)N1CCC[C@H]1C(=O)N[C@@H](CCCCN)C(=O)O [YDE-011] (H-[Hyp]GQLGLAGPK-OH)
- viability at 24 h, 0.001 µM (PBMCs, 24 hr): 85 ± 5.1%
- viability at 24 h, 0.01 µM [1]: 81 ± 1.2%
- viability at 24 h, 0.1 µM [2]: 82 ± 4%
- viability at 24 h, 1 µM [3]: 79.7 ± 5.8%
- viability at 24 h, 10 µM [4]: 88.3 ± 1.5%
- viability at 24 h, 100 µM [5]: 74.3 ± 4.1%
- viability at 24 h, 0.01 µM (human PBMCs, PBMC + LPS(5 ug/ml), test article 0.01 uM, single replicates): 83%

SMILES: CC(C)C[C@H](NC(=O)[C@H](CCC(N)=O)NC(=O)CNC(=O)[C@@H]1C[C@@H](O)CN1)C(=O)NCC(=O)O [YDE-043] (H-[Hyp]GQLG-OH; N-terminus and C-terminus assumed)
- viability at 24 h, 0.001 µM (PBMCs, 24 hr): 79.3 ± 1.5%
- viability at 24 h, 0.01 µM [1]: 77.3 ± 6.9%
- viability at 24 h, 0.1 µM [2]: 82 ± 4%
- viability at 24 h, 1 µM [3]: 78 ± 5%
- viability at 24 h, 10 µM [4]: 83.3 ± 3.3%
- viability at 24 h, 100 µM [5]: 84.5 ± 4.5%

SMILES: CC(C)C[C@H](NC(=O)CNC(=O)[C@H](CC(=O)O)NC(=O)[C@H](CCC(N)=O)NC(=O)CNC(=O)[C@@H]1C[C@@H](O)CN1)C(=O)N[C@@H](C)C(=O)NCC(=O)N1CCC[C@H]1C(=O)N[C@@H](CCCCN)C(=O)O [YY-101] (H-[Hyp]GQDGLAGPK-OH; N-terminus and C-terminus assumed)
- viability at 24 h, 0.001 µM (PBMCs, 24 hr): 84.3 ± 2.6%
- viability at 24 h, 0.01 µM [1]: 77.3 ± 5%
- viability at 24 h, 0.1 µM [2]: 75.7 ± 4.7%
- viability at 24 h, 1 µM [3]: 66.7 ± 5.8%
- viability at 24 h, 10 µM [4]: 73.7 ± 4.8%
- viability at 24 h, 100 µM [5]: 76.7 ± 5.2%
- viability at 24 h, 0.01 µM (PBMCs, PBMC + compound 0.01 uM, no LPS, 24 hr): 85 ± 2%
- viability at 24 h, 0.1 µM (PBMCs, PBMC + compound 0.1 uM, no LPS, 24 hr): 84%
- viability at 24 h, 1 µM (PBMCs, PBMC + compound 1 uM, no LPS, 24 hr): 89.5 ± 2.5%
- viability at 24 h, 10 µM (PBMCs, PBMC + compound 10 uM, no LPS, 24 hr): 86 ± 1%
- viability at 24 h, 100 µM (PBMCs, PBMC + compound 100 uM, no LPS, 24 hr): 86.5 ± 1.5%
